In the NIST ThermoML archive (doi:10.1016/j.jct.2009.11.011):
Where “and” joins values, the source holds several entries; their conditions need not be identical. Identical values can stand only once.

Assays:
[1] = for vapor or sublimation pressure: Liquid, Ebulliometric method (Recirculating still)
[2] = Molar enthalpy of transition or fusion; conditions: Crystal; Adiabatic calorimetry
[3] = molar heat capacity at saturation pressure

c1cnc2c(c1)ccc1cccnc12 [1,10-phenanthroline]
[1]
Conditions	vapor or sublimation pressure
523.28 K	2 kPa and 2.001 kPa
531.9 K	2.668 kPa
554.04 K	5.325 kPa
568.22 K	8.008 kPa
578.69 K	10.65 kPa
587.24 K	13.33 kPa
595.98 K	16.64 kPa
603.36 K	19.95 kPa

Conditions	Triple point temperature, Crystal [K]	molar heat capacity, 460 K [J/K/mol]	molar heat capacity, 480 K [J/K/mol]	molar heat capacity, 500 K [J/K/mol]	molar heat capacity, 520 K [J/K/mol]	molar heat capacity, 540 K [J/K/mol]	molar heat capacity, 560 K [J/K/mol]	molar heat capacity, 580 K [J/K/mol]	molar heat capacity, 600 K [J/K/mol]
[1], Adiabatic calorimetry	391.71	–	–	–	–	–	–	–	–
[3], Liquid	–	337.52	346.29	355	363.5	371.9	380.1	388.2	396

Conditions	Molar enthalpy of transition or fusion [kcal/mol]
[2]	3.705

molar heat capacity [J/K/mol], [3], Vacuum adiabatic calorimetry
Conditions	Crystal	Liquid
5 K	1.26	–
5.659 K	1.78	–
6.394 K	2.35	–
7.405 K	3.18	–
8.419 K	4.13	–
9.46 K	5.19	–
10 K	5.74	–
10.55 K	6.31	–
11.75 K	7.62	–
13.08 K	9.121	–
14.53 K	10.68	–
16.13 K	12.55	–
17.88 K	14.51	–
19.8 K	16.6	–
20 K	16.82	–
21.93 K	18.87	–
24.3 K	21.41	–
26.92 K	24.1	–
29.85 K	26.95	–
30 K	27.1	–
33.1 K	29.99	–
36.75 K	33.23	–
40 K	35.93	–
40.82 K	36.58	–
45.34 K	40.14	–
50 K	43.64	–
50.36 K	43.96	–
55.93 K	47.63	–
57.69 K	48.9	–
60 K	50.34	–
60.42 K	50.6	–
63.28 K	52.36	–
66.47 K	54.41	–
69.78 K	56.39	–
70 K	56.51	–
73.24 K	58.45	–
76.94 K	60.52	–
80 K	62.29	–
80.6 K	62.63	–
84.91 K	65	–
88.8 K	67.21	–
90 K	67.87	–
97.84 K	72.09	–
100 K	73.23	–
100.26 K	73.38	–
109.98 K	78.65	–
119.96 K	84.22	–
120 K	84.24	–
131.01 K	90.44	–
140 K	95.58	–
143.07 K	97.35	–
155.1 K	104.48	–
160 K	107.41	–
167.1 K	111.7	–
179.08 K	119.1	–
180 K	119.68	–
191.08 K	126.69	–
200 K	132.42	–
203.14 K	134.46	–
215.25 K	142.45	–
220 K	145.57	–
227.38 K	150.47	–
239.55 K	158.67	–
240 K	158.97	–
251.77 K	167.01	–
260 K	172.69	–
264.02 K	175.49	–
276.3 K	183.86	–
280 K	186.36	–
288.6 K	192.35	–
289.46 K	192.8	–
298.15 K	198.74	–
300 K	200	–
300.24 K	200.19	–
312.29 K	208.49	–
320 K	213.76	–
324.53 K	216.87	–
336.89 K	225.26	–
336.98 K	225.23	–
340 K	227.24	–
348.97 K	233.42	–
349.32 K	233.65	–
360 K	240.63	–
361.05 K	241.49	–
373.19 K	249.78	–
375.19 K	–	297.88
380 K	253.68	300.22
381.3 K	256.64	–
382.84 K	–	301.57
383.75 K	260.04	–
391.52 K	–	305.71
391.71 K	261.46	305.81
397.93 K	–	308.79
400 K	–	309.76
400.3 K	–	309.93
402.69 K	–	311.03
404.9 K	–	312.06
413.55 K	–	316.13
416.42 K	–	317.49
420 K	–	319.14
429.03 K	–	323.3
439.59 K	–	328.19
440 K	–	328.39
